± gives the standard deviation of the averaged measurements.
System: Danio rerio embryo
Assay: benchmark concentration, MalformedAny+Mort@120 (percent of embryos dead or malformed at 120 hpf); higher = less toxic
Conditions: exposure window: 4-6 to 120 hpf
Protocol: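 Single zebrafish embryos in 96-well plates (200 µL; 0.5% DMSO vehicle) were exposed from about 4–6 hpf to 120 hpf at 7 or more concentrations up to 100 µM or the solubility limit, one plate per replicate. Each lab used its in-house protocol: Lab A used AB embryos in E3 with chorion on and daily renewal; Lab B used Tropical 5D embryos in E2, dechorionated, static; Lab C used AB embryos in E3 with chorion on, static. The percentage of dead or malformed embryos at 120 hpf was fitted per plate (positive control: per week) by bootstrap Curvep to give a benchmark concentration (BMC); inactive substances are set to the highest tested concentration, BMCs at the lowest tested concentration are floors.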

[1] = laboratory protocol: Lab A: static renewal, chorionated (SR-C), AB strain, E3
[2] = laboratory protocol: Lab B: static, dechorionated (S-DC), Tropical 5D strain, E2
[3] = laboratory protocol: Lab C: static, chorionated (S-C), AB strain, E3

Structure (SMILES)	benchmark concentration [1] [µM]	benchmark concentration [2] [µM]	benchmark concentration [3] [µM]
CC/C(=C(/CC)c1ccc(O)cc1)c1ccc(O)cc1 [Diethylstilbestrol]	0.547 ± 0.03	3.07 ± 0.69	3.37 ± 1.3
Oc1c(Cl)c(Cl)c(Cl)c(Cl)c1Cl [Pentachlorophenol]	0.257 ± 0.15	< 1	0.818 ± 0.49
CC(C)(c1ccc(O)cc1)c1ccc(O)cc1 [Bisphenol A]	13 ± 2.4	38.5 ± 2.8	21.8 ± 12
CCOP(=S)(OCC)SCSCC [Phorate]	2.53 ± 1.7	> 100	
CC(=O)Oc1ccccc1C(=O)O [Aspirin]		> 100	24.6 ± 18
CC=O [Acetaldehyde]	> 100	> 100	> 100
C=C(C)[C@H]1Cc2c(ccc3c2O[C@@H]2COc4cc(OC)c(OC)cc4[C@@H]2C3=O)O1 [Rotenone]		< 1	0.194 ± 0.15
CC(C)c1cccc(C(C)C)c1O [Propofol]	0.502 ± 0.076	> 100	
Cn1c(=O)c2c(ncn2C)n(C)c1=O [Caffeine]	> 100	> 100	
CCCc1cc(=O)[nH]c(=S)[nH]1 [6-Propyl-2-thiouracil]	> 100	> 100	
CC(C)(c1cc(Br)c(O)c(Br)c1)c1cc(Br)c(O)c(Br)c1 [3,3',5,5'-Tetrabromobisphenol A]	1.39	2.97 ± 0.81	4.25 ± 0.23
c1ccc2c(c1)ccc1cc3c(ccc4ccccc43)cc12 [Dibenz(a,h)anthracene]		> 64	> 100
CC[C@H](C)[C@H]1O[C@]2(C=C[C@@H]1C)C[C@@H]1C[C@@H](C/C=C(\C)[C@@H](O[C@H]3C[C@H](OC)[C@@H](O[C@H]4C[C@H](OC)[C@@H](O)[C@H](C)O4)[C@H](C)O3)[C@@H](C)/C=C/C=C3\CO[C@@H]4[C@H](O)C(C)=C[C@@H](C(=O)O1)[C@]34O)O2.CO[C@H]1C[C@H](O[C@H]2[C@H](C)O[C@@H](O[C@@H]3/C(C)=C/C[C@@H]4C[C@@H](C[C@]5(C=C[C@H](C)[C@@H](C(C)C)O5)O4)OC(=O)[C@@H]4C=C(C)[C@@H](O)[C@H]5OC/C(=C\C=C\[C@@H]3C)[C@]54O)C[C@@H]2OC)O[C@@H](C)[C@@H]1O [Abamectin]			0.436 ± 0.24
NC(=O)NO [Hydroxyurea]	> 100	> 100	
c1cc2ccc3cccc4ccc(c1)c2c34 [Pyrene]	3.81 ± 1.2	50.5 ± 25	
CC(C)NC(=O)N1CC(=O)N(c2cc(Cl)cc(Cl)c2)C1=O [Iprodione]	11.7 ± 3.8	62.3 ± 23	35.7 ± 18
CC(C)(C)[C@H](O)[C@H](Cc1ccc(Cl)cc1)n1cncn1 (racemic) [Paclobutrazol]	0.339 ± 0.16		23.1 ± 21
Oc1cccc(O)c1 [Resorcinol]	> 100	> 100	> 100
O=C1CCC(N2C(=O)c3ccccc3C2=O)C(=O)N1 (stereo not drawn) [Thalidomide]	> 100	> 100	

Structure (SMILES)	benchmark concentration [1] [µM]	benchmark concentration [2] [µM]	benchmark concentration [3] [µM]
O=P(Oc1ccccc1)(Oc1ccccc1)Oc1ccccc1 [Triphenyl phosphate]	0.879 ± 0.45	4.35 ± 0.61	30 ± 15
CCCCOC(=O)c1ccccc1C(=O)OCCCC [Dibutyl phthalate]	1.28 ± 0.24	4.16 ± 0.31	38.2 ± 13
O=P(OC(CCl)CCl)(OC(CCl)CCl)OC(CCl)CCl [Tris(1,3-dichloro-2-propyl) phosphate]	2.2 ± 0.24	6.94 ± 2.6	15.9 ± 3.1
Cl[C@H]1[C@H](Cl)[C@@H](Cl)[C@@H](Cl)[C@H](Cl)[C@H]1Cl [Lindane]	1.24 ± 0.5	35.6 ± 6.7	9.25 ± 4.2
CCC[CH2][Sn]([CH2]CCC)([CH2]CCC)[O][Sn]([CH2]CCC)([CH2]CCC)[CH2]CCC [Bis(tributyltin)oxide]	0.0463 ± 0.0031		1.08 ± 0.52
CCCC(CCC)C(=O)O [Sodium valproate]		> 100	4.12
CCCCOC(=O)C(C)Oc1ccc(Oc2ccc(C(F)(F)F)cn2)cc1 (stereo not drawn) [Fluazifop-butyl]	2.6 ± 1.5	3.5 ± 1	53.8 ± 10
CCOP(=S)(OCC)Oc1nc(Cl)c(Cl)cc1Cl [Chlorpyrifos]	0.879 ± 0.45	63.7 ± 35	45.7
Nc1ccc(Cl)c(Cl)c1 [3,4-Dichloroaniline]	7.8 ± 0.11	< 2	14 ± 4.4
CN(C)C(=S)[S-].CN(C)C(=S)[S-].[Zn+2] [Ziram]		< 1	
CC(C)(C)C(=O)C(Oc1ccc(Cl)cc1)n1cncn1 (stereo not drawn) [Triadimefon]	1.51 ± 0.11	7.61 ± 4.6	6.93 ± 6.8
Oc1cc(Cl)ccc1Oc1ccc(Cl)cc1Cl [Triclosan]	1.2 ± 0.34	3.62 ± 0.7	7.86 ± 5.5
CC(COc1ccc(Oc2ccccc2)cc1)Oc1ccccn1 (stereo not drawn) [Pyriproxyfen]	4.41 ± 1.7	65.4 ± 16	
CCCC(CCC)C(=O)O [Valproic acid]			6 ± 7.4
C[Si](Cn1cncn1)(c1ccc(F)cc1)c1ccc(F)cc1 [Flusilazole]	1.41 ± 0.027	6.04 ± 1.4	11.6 ± 5.1
CCOP(=O)(OCC)Oc1nc(Cl)c(Cl)cc1Cl [Chlorpyrifos oxon]		1.69 ± 0.43	0.2 ± 0.14
CCNc1nc(Cl)nc(NC(C)C)n1 [Atrazine]	49 ± 5.9	> 100	> 100
CON(C)C(=O)Nc1ccc(Cl)c(Cl)c1 [Linuron]	4.78 ± 0.21	19.5 ± 9.7	29.7 ± 14
CNC(=O)O/N=C/C(C)(C)SC [Aldicarb]	0.926 ± 0.4	2.27 ± 0.83	1.94 ± 0.48

Source: the supplement of paper PMC10820928
